Measurements reported in article PMC10502087, “Fatty acid binding proteins are novel modulators of synaptic epoxyeicosatrienoic acid signaling in the brain” (Scientific Reports, 2023).
Where two headings read alike, the source gives them in different places.

Legend:
FABP3 = FABP3 (Homo sapiens, UniProt P05413); experiment: Fluorescent probe (DAUDA) displacement from purified FABP3; assay type: binding
Excerpt: (§1) We first examined the binding of EETs (Fig. 1) to purified FABP3, FABP5, and FABP7 via fluorescent probe displacement assays as previously described[30],[31]. 5,6-EET, 8,9-EET, 11,12-EET, and 14,15-EET bound to all three FABPs with distinct selectivity. […] Similarly, 11,12-EET emerged as the preferred ligand for FABP5 followed by 8,9-EET, 5,6-EET, and 14,15-EET (Fig. 2A, Table 1). For FABP7, 11,12-EET bound with highest affinity while interactions of the remaining EETs were considerably weaker.
(§2) Affinities of each ligand were determined via fluorescent probe displacement from purified FABPs as previously described[30],[31],[47]. Ligands were incubated in assay buffer (30 mM Tris, 100 mM NaCl, pH 7.5) containing 3 μM purified FABPs, 500 nM DAUDA (for FABP3 and FABP5) or ANS (for FABP7). AA (10 μM) was included to account for maximal probe displacement. The fluorescence signal was quantified on a F5 Filtermax Multi-Mode Microplate Reader (Molecular Devices) with the excitation and emission wavelengths set at 360/535 nm for DAUDA and 360/465 nm for ANS. After background subtraction, normalized fluorescence values were fit to a one-site binding model using GraphPad Prism (v 9.5) and Ki values were determined using the following equation: Ki = IC50/(1 + ([Probe]/Kd).

FABP5 [1] = biological target: T1, FABP5 (Homo sapiens, UniProt Q01469); experiment: Fluorescent probe (DAUDA) displacement from purified FABP5; assay type: binding
Description: We first examined the binding of EETs (Fig. 1) to purified FABP3, FABP5, and FABP7 via fluorescent probe displacement assays as previously described[30],[31].
Affinities of each ligand were determined via fluorescent probe displacement from purified FABPs as previously described[30],[31],[47]. Ligands were incubated in assay buffer (30 mM Tris, 100 mM NaCl, pH 7.5) containing 3 μM purified FABPs, 500 nM DAUDA (for FABP3 and FABP5) or ANS (for FABP7). AA (10 μM) was included to account for maximal probe displacement.

FABP7 [2] = biological target: T2, FABP7 (Homo sapiens, UniProt O15540); experiment: Fluorescent probe (ANS) displacement from purified FABP7; assay type: binding
Excerpt: as §1, §2

[3] = test system: CA1 pyramidal neuron glutamate synapses; parameters: method as in PMID 28526610, PMID 29138698; conditions: previous studies; cited from earlier work
[4] = test system: CA1 pyramidal neuron glutamate synapses; experiment: Ex vivo whole-cell recordings of evoked EPSCs in hippocampal slices; assay type: cell-based, C57Bl/6 mice
Description: Mice were deeply anesthetized with isoflurane and decapitated. Coronal brain slices (350 μm thick) containing the hippocampus were cut using a vibratome Leica VT 1200 (Leica, CA) in a modified ice-cold […] artificial cerebrospinal fluid (ACSF) composed in mM: 110 mM choline-Cl, 2.5 mM KCl, 0.5 mM CaCl2, 7 mM MgSO4, 1.25 mM NaH2PO4, 26.2 mM NaHCO3, 11.6 mM sodium L-ascorbate, 3.1 mM sodium pyruvate, and 25 mM glucose, and equilibrated with 95% O2 and 5% CO2. Hippocampal slices were first transferred to a chamber with the same cutting solution at 35 °C for 15 min and then to a standard ACSF in mM: 119 mM NaCl, 2.5 mM CaCl2, 1.3 mM MgSO4, 1 mM NaH2PO4, 26.2 mM NaHCO3, and 11 mM glucose continuously bubbled with a mixture of 95% O2 and 5% CO2 for additional 45 min at 35 °C. Slices were allowed to recover at room temperature (≥ 1 h). After recovery, individual slice was transferred to a recording chamber, continuously perfused with standard ACSF containing 0.01% DMSO saturated with 95% O2 and 5% CO2, and warmed at 30 °C.
Hippocampal CA1 pyramidal neurons were visualized using an upright microscope (BX 51 WI; Olympus, Tokyo, Japan) and somatic whole-cell recordings were obtained from pyramidal neurons using glass pipette electrodes with 3–5 MΩ resistance when filled with an internal solution containing: 120 mM potassium gluconate, 10 mM KCl, 10 mM Na2-phosphocreatine, 10 mM HEPES, 1 mM MgCl2, 1 mM EGTA, 2 mM Na2-ATP, 0.25 mM Na-GTP (pH 7.3 adjusted with KOH; osmolarity, 280–290 mOsmol/l). All recordings were performed in the presence of the GABA A receptor antagonist picrotoxin (100 μM). Excitatory postsynaptic currents (EPSCs) were evoked with electrical pulses (5–20 V, 100–200 μs) delivered at 0.1 Hz using glass microelectrode placed in the […] in CA1 pyramidal neurons voltage-clamped at − 70 mV. All recorded currents were amplified with an a Multiclamp 700B amplifier (Molecular Devices, Sunnyvale, CA), filtered at 3 kHz, digitized at 20 kHz with Digidata 1200 (Molecular Devices), and acquired using the pClamp 10.7 software (Molecular Devices, Sunnyvale, CA). To examine the impact of TPPU on the amplitude of evoked EPSCs, at least 10–20 min of stable baseline recordings were obtained and TPPU was perfused to the brain slices (final DMSO concentration of 0.01%).
For the analysis of the electrophysiology data, the amplitude of evoked EPSCs (eEPSC) was determined by measuring the average current during a 2-ms period at the peak of each eEPSC and subtracted from the average baseline current determined during a 5-ms window taken before the stimulus artifact. All eEPSC amplitudes were normalized to the mean baseline amplitude recorded for at least 10 min before drug application. All the data are represented as the mean ± SE and were not transformed.

FABP5 [5] = biological target: T1, FABP5; parameters: method as in PMID 8798739, PMID 8608126; conditions: cited from earlier work
FABP7 [6] = biological target: T2, FABP7; parameters: method as in PMID 8798739, PMID 8608126; conditions: cited from earlier work
[7] = mean ± S.E., n = 4, Table 1, read-out: Ki FABP5

T2 sequence (O15540 whole entry): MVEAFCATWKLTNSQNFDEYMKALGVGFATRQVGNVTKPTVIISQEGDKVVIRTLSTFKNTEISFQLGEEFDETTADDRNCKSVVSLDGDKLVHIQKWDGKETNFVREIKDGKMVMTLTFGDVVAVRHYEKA
T1 sequence (Q01469 whole entry): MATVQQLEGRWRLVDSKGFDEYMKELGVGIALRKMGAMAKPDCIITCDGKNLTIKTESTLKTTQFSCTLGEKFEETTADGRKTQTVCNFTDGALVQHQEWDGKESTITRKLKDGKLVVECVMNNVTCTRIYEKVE
Chain of FABP3 (P05413 whole entry): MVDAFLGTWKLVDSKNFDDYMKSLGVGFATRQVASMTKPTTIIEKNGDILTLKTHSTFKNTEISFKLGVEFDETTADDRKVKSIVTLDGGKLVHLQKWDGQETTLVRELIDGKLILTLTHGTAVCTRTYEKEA

| SMILES | Ki (FABP3; mean ± S.E., n = 4, Table 1) | Ki (FABP5 [1]; [7]) | Ki (FABP7 [2]; mean ± S.E., n = 4, Table 1) | also measured |
| --- | --- | --- | --- | --- |
| CCCCC/C=C\C[C@H]1O[C@H]1C/C=C\C/C=C\CCCC(=O)O [11,12-EET] | 0.2 ± 0.03 µM | 0.52 ± 0.07 µM | 1.13 ± 0.11 µM | Effect on hippocampal glutamate synapses [3]: depresses |
| CCCCC[C@H](O)/C=C/[C@@H]1[C@@H](C/C=C\CCCC(=O)O)[C@@H](O)C[C@H]1O [PGF2α] | > 50 µM | > 50 µM | > 50 µM |  |
| CCCCCC(O)C=CC1C(O)CC(=O)C1CC=CCCCC(=O)OCC(O)CO (stereo not shown) [PGE2-GE, prostaglandin E2 glyceryl ester] | > 50 µM | > 50 µM | > 50 µM |  |
| O=C(O)C1[C@H](c2ccccc2)C(C(=O)Oc2cccc3ccccc23)[C@H]1c1ccccc1 (stereo partly shown) [SBFI-26] |  |  |  | Ki (FABP3; inhibitors, Table 3): 2.7 ± 0.42 µM; Ki (FABP7 [2]; inhibitors, Table 3): 0.45 ± 0.07 µM; Effect on TPPU-induced potentiation of eEPSCs ([4]; inhibitor 10 µM with TPPU 10 µM, hippocampal slices): significantly reduced |
| CCCCC/C=C\C/C=C\C/C=C\C[C@H]1O[C@H]1CCCC(=O)O [5,6-EET] | 1.44 ± 0.12 µM | 3.57 ± 0.28 µM | 4.3 ± 0.29 µM |  |
| CCCCC[C@H](O)/C=C/[C@H]1[C@H](O)CC(=O)[C@@H]1C/C=C\CCCC(=O)O [PGE2, prostaglandin E2] | > 50 µM | > 50 µM | > 50 µM | Affinity for FABP5 (FABP5 [5]): does not display appreciable affinity; Affinity for FABP7 (FABP7 [6]): does not display appreciable affinity |
| CCCCCCCC/C=C\CCCCCCCC(=O)OC[C@H](O)COP(=O)(O)O [LPA, oleoyl lysophosphatidic acid] | 1.37 ± 0.12 µM | 3.2 ± 0.19 µM | > 50 µM |  |
| CCCCC[C@H]1O[C@H]1C/C=C\C/C=C\C/C=C\CCCC(=O)O [14,15-EET] | 0.65 ± 0.08 µM | 5.56 ± 0.48 µM | 3.74 ± 0.12 µM | Effect on hippocampal glutamate synapses [3]: potentiates |
| CCCCCC=CC=C1C(=O)C=CC1CC=CCCCC(=O)O (stereo not shown) [15d-PGJ2, 15-deoxy-Δ^12,14-Prostaglandin J2] | 1.22 ± 0.14 µM |  | 29.9 ± 5.64 µM | Ki (FABP5 [1]): 12.3 ± 1.54 µM |
| CCCCCC(O)C=CC1C(O)CC(O)C1CC=CCCCC(=O)NCCO (stereo not drawn) [PGF2α-EA, prostamide F2α] | > 50 µM | > 50 µM | > 50 µM |  |
| CCCCC/C=C\C/C=C\C[C@H]1O[C@H]1C/C=C\CCCC(=O)O [8,9-EET] | 0.17 ± 0.02 µM | 1.87 ± 0.21 µM | 3.16 ± 0.3 µM |  |
| CCC(=O)N1CCC(NC(=O)Nc2ccc(OC(F)(F)F)cc2)CC1 [TPPU] |  |  |  | CA1 pyramidal neurons showing depression of eEPSC amplitude ([4]; TPPU 10 µM): 41%; CA1 pyramidal neurons showing potentiation of eEPSC amplitude ([4]; TPPU 10 µM): 47%; Coefficient of variation (CV) during depression of EPSCs ([4]; TPPU 10 µM vs baseline, n = 5, p = 0.086): not accompanied with significant changes; Paired pulse ratio (PPR) during depression of EPSCs ([4]; TPPU 10 µM vs baseline, n = 5, p = 0.108): not accompanied with significant changes; Coefficient of variation (CV) during potentiation of eEPSCs ([4]; TPPU 10 µM vs baseline, n = 7, p = 0.0017): significant decrease; Paired pulse ratio (PPR) during potentiation of eEPSCs ([4]; TPPU 10 µM vs baseline, n = 7, p = 0.042): significant decrease |
